System: human ventricular trabeculae
Experiment: Action potential recording and pro-arrhythmic score analysis in human ventricular trabeculae (hVT);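 also: sharp microelectrode action potential recordings at 37°C in Tyrode-perfused trabeculae, 4 cumulative concentrations each applied 31 min, values averaged over last 30 APs, vehicle 0.1% DMSO as control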
Details: 1Hz

CC(C)(C)c1ccc(C(O)CCCN2CCC(C(O)(c3ccccc3)c3ccccc3)CC2)cc1 (stereo not drawn) [TERFENADINE, Terfenadine]
AMAX (1-FOLD free ETPC (0.009µM)): 113
AMAX percentage change compared to vehicle control (1-FOLD free ETPC (0.009µM)): 1%
APD30 (1-FOLD free ETPC (0.009µM)): 148
APD30 percentage change compared to vehicle control (1-FOLD free ETPC (0.009µM)): 4%
APD50 (1-FOLD free ETPC (0.009µM)): 199
APD50 percentage change compared to vehicle control (1-FOLD free ETPC (0.009µM)): 3%
APD90 (1-FOLD free ETPC (0.009µM)): 278
APD90 percentage change compared to vehicle control (1-FOLD free ETPC (0.009µM)): 1%
Alternans (1-FOLD free ETPC (0.009µM)): 0.70
Alternans percentage change compared to vehicle control (1-FOLD free ETPC (0.009µM)): 53%
Beat Escape (1-FOLD free ETPC (0.009µM)): 0
Beat Escape percentage change compared to vehicle control (1-FOLD free ETPC (0.009µM)): 0%
EADs (1-FOLD free ETPC (0.009µM)): 0
EADs percentage change compared to vehicle control (1-FOLD free ETPC (0.009µM)): 0%
ERP (1-FOLD free ETPC (0.009µM)): 0.45
ERP percentage change compared to vehicle control (1-FOLD free ETPC (0.009µM)): -2%
Max Dispersion (1-FOLD free ETPC (0.009µM)): 4.48
Max Dispersion percentage change compared to vehicle control (1-FOLD free ETPC (0.009µM)): 60%
RMP (1-FOLD free ETPC (0.009µM)): -89
RMP percentage change compared to vehicle control (1-FOLD free ETPC (0.009µM)): 1%
Refractoriness Escape (1-FOLD free ETPC (0.009µM)): 0
Refractoriness Escape percentage change compared to vehicle control (1-FOLD free ETPC (0.009µM)): 0%
STV (1-FOLD free ETPC (0.009µM)): 0.50
STV percentage change compared to vehicle control (1-FOLD free ETPC (0.009µM)): 72%
Triangulation (1-FOLD free ETPC (0.009µM)): 130
Triangulation percentage change compared to vehicle control (1-FOLD free ETPC (0.009µM)): -2%
AMAX (11-FOLD free ETPC (0.009µM)): 109
AMAX percentage change compared to vehicle control (11-FOLD free ETPC (0.009µM)): -1%
APD30 (11-FOLD free ETPC (0.009µM)): 152
APD30 percentage change compared to vehicle control (11-FOLD free ETPC (0.009µM)): 6%
APD50 (11-FOLD free ETPC (0.009µM)): 203
APD50 percentage change compared to vehicle control (11-FOLD free ETPC (0.009µM)): 4%
APD90 (11-FOLD free ETPC (0.009µM)): 286
APD90 percentage change compared to vehicle control (11-FOLD free ETPC (0.009µM)): 3%
Alternans (11-FOLD free ETPC (0.009µM)): 0.62
Alternans percentage change compared to vehicle control (11-FOLD free ETPC (0.009µM)): 35%
Beat Escape (11-FOLD free ETPC (0.009µM)): 0
Beat Escape percentage change compared to vehicle control (11-FOLD free ETPC (0.009µM)): 0%
EADs (11-FOLD free ETPC (0.009µM)): 0
EADs percentage change compared to vehicle control (11-FOLD free ETPC (0.009µM)): 0%
ERP (11-FOLD free ETPC (0.009µM)): 0.44
ERP percentage change compared to vehicle control (11-FOLD free ETPC (0.009µM)): -3%
Max Dispersion (11-FOLD free ETPC (0.009µM)): 2.80
Max Dispersion percentage change compared to vehicle control (11-FOLD free ETPC (0.009µM)): 0%
RMP (11-FOLD free ETPC (0.009µM)): -86
RMP percentage change compared to vehicle control (11-FOLD free ETPC (0.009µM)): -2%
Refractoriness Escape (11-FOLD free ETPC (0.009µM)): 0
Refractoriness Escape percentage change compared to vehicle control (11-FOLD free ETPC (0.009µM)): 0%
STV (11-FOLD free ETPC (0.009µM)): 0.45
STV percentage change compared to vehicle control (11-FOLD free ETPC (0.009µM)): 40%
Triangulation (11-FOLD free ETPC (0.009µM)): 134
Triangulation percentage change compared to vehicle control (11-FOLD free ETPC (0.009µM)): 0%
AMAX (111-FOLD free ETPC (0.009µM)): 109
AMAX percentage change compared to vehicle control (111-FOLD free ETPC (0.009µM)): -2%
APD30 (111-FOLD free ETPC (0.009µM)): 148
APD30 percentage change compared to vehicle control (111-FOLD free ETPC (0.009µM)): 4%
APD50 (111-FOLD free ETPC (0.009µM)): 200
APD50 percentage change compared to vehicle control (111-FOLD free ETPC (0.009µM)): 3%
APD90 (111-FOLD free ETPC (0.009µM)): 284
APD90 percentage change compared to vehicle control (111-FOLD free ETPC (0.009µM)): 2%
Alternans (111-FOLD free ETPC (0.009µM)): 0.52
Alternans percentage change compared to vehicle control (111-FOLD free ETPC (0.009µM)): 12%
Beat Escape (111-FOLD free ETPC (0.009µM)): 0
Beat Escape percentage change compared to vehicle control (111-FOLD free ETPC (0.009µM)): 0%
EADs (111-FOLD free ETPC (0.009µM)): 0
EADs percentage change compared to vehicle control (111-FOLD free ETPC (0.009µM)): 0%
ERP (111-FOLD free ETPC (0.009µM)): 0.45
ERP percentage change compared to vehicle control (111-FOLD free ETPC (0.009µM)): 0%
Max Dispersion (111-FOLD free ETPC (0.009µM)): 2.43
Max Dispersion percentage change compared to vehicle control (111-FOLD free ETPC (0.009µM)): -13%
RMP (111-FOLD free ETPC (0.009µM)): -85
RMP percentage change compared to vehicle control (111-FOLD free ETPC (0.009µM)): -3%
Refractoriness Escape (111-FOLD free ETPC (0.009µM)): 0
Refractoriness Escape percentage change compared to vehicle control (111-FOLD free ETPC (0.009µM)): 0%
STV (111-FOLD free ETPC (0.009µM)): 0.39
STV percentage change compared to vehicle control (111-FOLD free ETPC (0.009µM)): 30%
Triangulation (111-FOLD free ETPC (0.009µM)): 135
Triangulation percentage change compared to vehicle control (111-FOLD free ETPC (0.009µM)): 0%
AMAX (1111-FOLD free ETPC (0.009µM)): 110
AMAX percentage change compared to vehicle control (1111-FOLD free ETPC (0.009µM)): 0%
APD30 (1111-FOLD free ETPC (0.009µM)): 140
APD30 percentage change compared to vehicle control (1111-FOLD free ETPC (0.009µM)): -2%
APD50 (1111-FOLD free ETPC (0.009µM)): 192
APD50 percentage change compared to vehicle control (1111-FOLD free ETPC (0.009µM)): -2%
APD90 (1111-FOLD free ETPC (0.009µM)): 277
APD90 percentage change compared to vehicle control (1111-FOLD free ETPC (0.009µM)): 0%
Alternans (1111-FOLD free ETPC (0.009µM)): 0.60
Alternans percentage change compared to vehicle control (1111-FOLD free ETPC (0.009µM)): 31%
Beat Escape (1111-FOLD free ETPC (0.009µM)): 0
Beat Escape percentage change compared to vehicle control (1111-FOLD free ETPC (0.009µM)): 0%
EADs (1111-FOLD free ETPC (0.009µM)): 0
EADs percentage change compared to vehicle control (1111-FOLD free ETPC (0.009µM)): 0%
ERP (1111-FOLD free ETPC (0.009µM)): 0.46
ERP percentage change compared to vehicle control (1111-FOLD free ETPC (0.009µM)): 2%
Max Dispersion (1111-FOLD free ETPC (0.009µM)): 3.70
Max Dispersion percentage change compared to vehicle control (1111-FOLD free ETPC (0.009µM)): 32%
RMP (1111-FOLD free ETPC (0.009µM)): -87
RMP percentage change compared to vehicle control (1111-FOLD free ETPC (0.009µM)): -1%
Refractoriness Escape (1111-FOLD free ETPC (0.009µM)): 0
Refractoriness Escape percentage change compared to vehicle control (1111-FOLD free ETPC (0.009µM)): 0%
STV (1111-FOLD free ETPC (0.009µM)): 0.44
STV percentage change compared to vehicle control (1111-FOLD free ETPC (0.009µM)): 56%
